Data from the NIST ThermoML archive (doi:10.1016/j.fluid.2004.11.022).
± gives the expanded uncertainty stated by the source.

Legend:
[1] = mn = molality of the nth substance listed, in mol/kg; conditions: 298.15 K, 101.3 kPa, Liquid
[2] = osmotic coefficient (dimensionless); mn = molality of the nth substance listed, in mol/kg; conditions: 298.15 K, Liquid, isopiestic method

[Cl-].[Cl-].[Zn+2] [zinc chloride] + CCO
Conditions | mass density [kg/m3] | osmotic coefficient
[1], m1 = 0.0018 | 785.28 ± 0.61 | –
[1], m1 = 0.0035 | 785.46 ± 0.61 | –
[1], m1 = 0.0053 | 785.67 ± 0.61 | –
[1], m1 = 0.0087 | 786.03 ± 0.61 | –
[1], m1 = 0.0106 | 786.24 ± 0.61 | –
[1], m1 = 0.0127 | 786.47 ± 0.61 | –
[1], m1 = 0.0167 | 786.9 ± 0.6 | –
[1], m1 = 0.0185 | 787.09 ± 0.61 | –
[1], m1 = 0.0227 | 787.56 ± 0.61 | –
[1], m1 = 0.033 | 788.63 ± 0.6 | –
[1], m1 = 0.0394 | 789.3 ± 0.6 | –
[1], m1 = 0.0471 | 790.1 ± 0.6 | –
[1], m1 = 0.051 | 790.5 ± 0.6 | –
[1], m1 = 0.0551 | 790.94 ± 0.6 | –
[1], m1 = 0.0624 | 791.69 ± 0.6 | –
[1], m1 = 0.0691 | 792.36 ± 0.6 | –
[1], m1 = 0.0734 | 792.8 ± 0.6 | –
[1], m1 = 0.0781 | 793.28 ± 0.59 | –
[1], m1 = 0.0825 | 793.72 ± 0.59 | –
[1], m1 = 0.0921 | 794.68 ± 0.59 | –
[1], m1 = 0.1035 | 795.81 ± 0.59 | –
[1], m1 = 0.1713 | 802.4 ± 0.58 | –
[1], m1 = 0.2776 | 812.39 ± 0.56 | –
[1], m1 = 0.4056 | 824.04 ± 0.54 | –
[1], m1 = 0.5788 | 839.34 ± 0.51 | –
[1], m1 = 0.6875 | 848.7 ± 0.5 | –
[1], m1 = 0.8432 | 861.8 ± 0.48 | –
[1], m1 = 1.086 | 881.52 ± 0.45 | –
[1], m1 = 1.132 | 885.11 ± 0.45 | –
[1], m1 = 1.312 | 899.05 ± 0.43 | –
[1], m1 = 1.346 | 901.59 ± 0.43 | –
[1], m1 = 1.542 | 916.09 ± 0.41 | –
[1], m1 = 1.689 | 926.54 ± 0.41 | –
[1], m1 = 1.883 | 940 ± 0.4 | –
[1], m1 = 2.041 | 950.61 ± 0.39 | –
[1], m1 = 2.204 | 961.4 ± 0.4 | –
[1], m1 = 2.402 | 974.29 ± 0.39 | –
[1], m1 = 2.541 | 983.29 ± 0.39 | –
[1], m1 = 2.776 | 998.74 ± 0.39 | –
[2], m1 = 0.219 | – | 0.359 ± 0.032
[2], m1 = 0.4046 | – | 0.332 ± 0.033
[2], m1 = 0.4882 | – | 0.352 ± 0.032
[2], m1 = 0.5854 | – | 0.358 ± 0.032
[2], m1 = 0.7111 | – | 0.36 ± 0.032
[2], m1 = 0.7875 | – | 0.379 ± 0.031
[2], m1 = 0.8946 | – | 0.383 ± 0.031
[2], m1 = 1.057 | – | 0.405 ± 0.03
[2], m1 = 1.087 | – | 0.403 ± 0.03
[2], m1 = 1.205 | – | 0.416 ± 0.029
[2], m1 = 1.227 | – | 0.422 ± 0.029
[2], m1 = 1.353 | – | 0.441 ± 0.028
[2], m1 = 1.446 | – | 0.443 ± 0.028
[2], m1 = 1.567 | – | 0.458 ± 0.027
[2], m1 = 1.666 | – | 0.472 ± 0.026
[2], m1 = 1.765 | – | 0.482 ± 0.026
[2], m1 = 1.889 | – | 0.494 ± 0.025
[2], m1 = 1.973 | – | 0.506 ± 0.025
[2], m1 = 2.115 | – | 0.519 ± 0.024
[2], m1 = 2.233 | – | 0.542 ± 0.023
[2], m1 = 2.408 | – | 0.56 ± 0.022
[2], m1 = 2.455 | – | 0.571 ± 0.021
[2], m1 = 2.61 | – | 0.594 ± 0.02
[2], m1 = 2.712 | – | 0.616 ± 0.019
